# Results reported in patent US20230257372A1 (CHONG KUN DANG PHARMACEUTICAL CORP., priority 2020, published 2023).
# What was measured:
# human recombinant HDAC6 = biological target: T1, human recombinant HDAC6 (Homo sapiens, UniProt Q9UBN7); experiment: HDAC6 enzyme activity inhibition (HDAC Fluorimetric Drug Discovery Kit); format: biochemical; settings: for HDAC6 selectivity (fold): HDAC1 IC50 / HDAC6 IC50; for IC50: human recombinant HDAC6, IC50 calculated with GraphPad Prism
# T1 construct: purchased Calbiochem Inc. 382180
# T1 sequence (Q9UBN7 1-1215): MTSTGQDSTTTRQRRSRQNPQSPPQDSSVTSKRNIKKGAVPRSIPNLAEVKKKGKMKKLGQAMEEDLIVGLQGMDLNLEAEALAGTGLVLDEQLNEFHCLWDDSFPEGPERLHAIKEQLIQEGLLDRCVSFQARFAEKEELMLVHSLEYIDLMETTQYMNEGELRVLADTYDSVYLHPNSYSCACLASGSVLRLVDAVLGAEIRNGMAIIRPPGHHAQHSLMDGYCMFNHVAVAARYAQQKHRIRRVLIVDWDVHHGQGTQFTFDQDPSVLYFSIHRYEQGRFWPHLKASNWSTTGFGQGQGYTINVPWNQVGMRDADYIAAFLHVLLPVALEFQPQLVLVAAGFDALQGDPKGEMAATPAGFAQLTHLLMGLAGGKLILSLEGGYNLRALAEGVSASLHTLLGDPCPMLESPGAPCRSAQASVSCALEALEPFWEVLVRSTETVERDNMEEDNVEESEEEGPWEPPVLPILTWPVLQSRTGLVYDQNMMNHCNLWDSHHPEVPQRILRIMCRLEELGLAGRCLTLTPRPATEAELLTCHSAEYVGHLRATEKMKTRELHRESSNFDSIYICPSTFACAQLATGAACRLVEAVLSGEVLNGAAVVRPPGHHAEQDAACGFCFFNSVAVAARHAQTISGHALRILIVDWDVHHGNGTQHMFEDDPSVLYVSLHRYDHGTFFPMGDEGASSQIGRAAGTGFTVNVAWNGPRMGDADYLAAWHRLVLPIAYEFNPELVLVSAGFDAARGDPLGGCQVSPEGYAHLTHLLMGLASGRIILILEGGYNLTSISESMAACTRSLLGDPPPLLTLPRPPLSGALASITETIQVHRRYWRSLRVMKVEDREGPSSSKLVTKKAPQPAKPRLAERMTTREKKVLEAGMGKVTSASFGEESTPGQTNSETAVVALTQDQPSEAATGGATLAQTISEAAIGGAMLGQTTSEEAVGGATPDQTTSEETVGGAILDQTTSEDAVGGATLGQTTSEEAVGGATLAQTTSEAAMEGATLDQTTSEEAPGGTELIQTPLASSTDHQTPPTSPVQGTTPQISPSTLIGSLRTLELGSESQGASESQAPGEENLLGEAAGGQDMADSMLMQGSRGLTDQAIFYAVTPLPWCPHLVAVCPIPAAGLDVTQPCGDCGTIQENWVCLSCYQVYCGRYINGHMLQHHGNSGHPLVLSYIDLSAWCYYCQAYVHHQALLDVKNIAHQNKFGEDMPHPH
# How it was run: (§1)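 Fluorimetric deacetylase read-out: after 30 min with Developer II following a 60 min, 30° C reaction of recombinant enzyme ([…]) with 10 μM substrate, across five-fold serial compound dilutions.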
# human recombinant HDAC1 = biological target: T2, human recombinant HDAC1 (Homo sapiens, UniProt Q13547); experiment: HDAC1 enzyme activity inhibition (HDAC Fluorimetric Drug Discovery Kit); format: biochemical; settings: human recombinant HDAC1; IC50 calculated with GraphPad Prism; read-out: HDAC1
# T2 construct: purchased Enzo Life Science, Inc. BML-SE456
# T2 sequence (Q13547 whole entry): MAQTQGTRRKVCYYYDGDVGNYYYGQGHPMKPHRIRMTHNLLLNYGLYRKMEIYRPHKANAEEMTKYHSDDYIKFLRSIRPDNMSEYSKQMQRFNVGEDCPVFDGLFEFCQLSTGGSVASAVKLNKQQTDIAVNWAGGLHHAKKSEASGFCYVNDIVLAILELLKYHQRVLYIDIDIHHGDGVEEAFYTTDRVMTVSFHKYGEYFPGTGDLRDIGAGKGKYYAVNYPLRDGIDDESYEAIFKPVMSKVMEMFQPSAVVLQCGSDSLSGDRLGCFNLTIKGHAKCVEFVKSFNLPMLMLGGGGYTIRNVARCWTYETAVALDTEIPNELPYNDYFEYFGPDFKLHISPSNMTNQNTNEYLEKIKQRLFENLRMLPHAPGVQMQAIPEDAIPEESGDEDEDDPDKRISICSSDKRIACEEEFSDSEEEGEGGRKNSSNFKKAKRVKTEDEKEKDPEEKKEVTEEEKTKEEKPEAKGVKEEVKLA
# How it was run: as §1
SMILES,HDAC6 selectivity (fold) (human recombinant HDAC6),IC50 (human recombinant HDAC6),IC50 (human recombinant HDAC1)
"CCC(=O)N1CCN(c2cccc(-c3cn(Cc4ccc(-c5nnc(C(F)F)o5)cc4F)nn3)c2)CC1 [Compound 4377, 1-(4-(3-(1-(4-(5-(difluoromethyl)-1,3,4-oxadiazol-2-yl)-2-fluorobenzyl)-1H-1,2,3-triazol-4-yl)phenyl)piperazin-1l-yl)propan-1l-one]",1039 fold,0.0481 µM,> 50 µM
"CCN1CC(N2CCc3cc(-c4cn(Cc5ccc(-c6nnc(C(F)F)o6)cc5F)nn4)ccc3C2)C1 [Compound 4392, 2-(difluoromethyl)-5-(4-((4-(2-(1-ethylazetidin-3-yl)-1,2,3,4-tetrahydroisoquinolin-6-yl)-1H-1,2,3-triazol-1-yl)methyl)-3-fluorophenyl)-1,3,4-oxadiazole]",1262 fold,0.0396 µM,> 50 µM
"CC(C)N1CC(N2CCc3cc(-c4cn(Cc5ccc(-c6nnc(C(F)F)o6)cc5F)nn4)ccc3C2)C1 [Compound 4393, 2-(difluoromethyl)-5-(3-fluoro-4-((4-(2-(1-isopropylazetidin-3-yl)-1,2,3,4-tetrahydroisoquinolin-6-yl)-1H-1,2,3-triazol-1-yl)methyl)phenyl)-1,3,4-oxadiazole]",1381 fold,0.0362 µM,> 50 µM
"Fc1cc(-c2nnc(C(F)F)o2)ccc1Cn1cc(-c2ccc3c(c2)CCN(C2CN(C4CCC4)C2)C3)nn1 [Compound 4394, 2-(4-((4-(2-(1-cyclobutylazetidin-3-yl)-1,2,3,4-tetrahydroisoquinolin-6-yl)-1H-1,2,3-triazol-1-yl)methyl)-3-fluorophenyl)-5-(difluoromethyl)-1,3,4-oxadiazole]",706 fold,0.0708 µM,> 50 µM
"Fc1cc(-c2nnc(C(F)F)o2)ccc1Cn1cc(-c2ccc3c(c2)CCN(C2CN(C4COC4)C2)C3)nn1 [Compound 4395, 2-(difluoromethyl)-5-(3-fluoro-4-((4-(2-(1-(oxetan-3-yl)azetidin-3-yl)-1,2,3,4-tetrahydroisoquinolin-6-yl)-1H-1,2,3-triazol-1-yl)methyl)phenyl)-1,3,4-oxadiazole]",1024 fold,0.0488 µM,> 50 µM
"Fc1ccc(-c2cn(Cc3ccc(-c4nnc(C(F)F)o4)cc3)nn2)cc1N1CCNCC1 [Compound 4396, 2-(difluoromethyl)-5-(4-((4-(4-fluoro-3-(piperazin-1-yl)phenyl)-1H-1,2,3-triazol-1-yl)methyl)phenyl)-1,3,4-oxadiazole]",619 fold,0.0807 µM,> 50 µM
"Fc1cc(-c2nnc(C(F)F)o2)ccc1Cn1cc(-c2ccc(F)c(N3CCNCC3)c2)nn1 [Compound 4397, 2-(difluoromethyl)-5-(3-fluoro-4-((4-(4-fluoro-3-(piperazin-1-yl)phenyl)-1H-1,2,3-triazol-1-yl)methyl)phenyl)-1,3,4-oxadiazole]",766 fold,0.0652 µM,> 50 µM
"Fc1ccc(-c2cn(Cc3ccc(-c4nnc(C(F)F)o4)cc3)nn2)cc1N1C[C@@H]2C[C@H]1CN2 [Compound 4398, 2-(4-((4-(3-((1S,4S)-2,5-diazabicyclo[2.2.1]heptan-2-yl)-4-fluorophenyl)-1H-1,2,3-triazol-1-yl)methyl)phenyl)-5-(difluoromethyl)-1,3,4-oxadiazole]",988 fold,0.0506 µM,> 50 µM
"Fc1cc(-c2nnc(C(F)F)o2)ccc1Cn1cc(-c2ccc(F)c(N3C[C@@H]4C[C@H]3CN4)c2)nn1 [Compound 4399, 2-(4-((4-(3-((1S,4S)-2,5-diazabicyclo[2.2.1]heptan-2-yl)-4-fluorophenyl)-1H-1,2,3-triazol-1-yl)methyl)-3-fluorophenyl)-5-(difluoromethyl)-1,3,4-oxadiazole]",460 fold,0.108 µM,> 50 µM
"FC(F)c1nnc(-c2ccc(Cn3cc(-c4cccc(CN5CC(F)(F)C5)c4)nn3)nc2)o1 [Compound 4400, 2-(6-((4-(3-((3,3-difluoroazetidin-1-yl)methyl)phenyl)-1H-1,2,3-triazol-1-yl)methyl)pyridin-3-yl)-5-(difluoromethyl)-1,3,4-oxadiazole]",1628 fold,0.0307 µM,> 50 µM
"FC(F)c1nnc(-c2ccc(Cn3cc(-c4cccc(CN5CCC(F)(F)CC5)c4)nn3)nc2)o1 [Compound 4401, 2-(difluoromethyl)-5-(6-((4-(3-((4,4-difluoropiperidin-1-yl)methyl)phenyl)-1H-1,2,3-triazol-1-yl)methyl)pyridin-3-yl)-1,3,4-oxadiazole]",1126 fold,0.0444 µM,> 50 µM
"Fc1cc(-c2nnc(C(F)F)o2)ccc1Cn1cc(-c2cccc(CN3CCC3)c2)nn1 [Compound 4402, 2-(4-((4-(3-(azetidin-1-ylmethyl)phenyl)-1H-1,2,3-triazol-1-yl)methyl)-3-fluorophenyl)-5-(difluoromethyl)-1,3,4-oxadiazole]",677 fold,0.0738 µM,> 50 µM
"Fc1cc(-c2nnc(C(F)F)o2)ccc1Cn1cc(-c2cccc(CN3CC(F)C3)c2)nn1 [Compound 4403, 2-(difluoromethyl)-5-(3-fluoro-4-((4-(3-((3-fluoroazetidin-1-yl)methyl)phenyl)-1H-1,2,3-triazol-1-yl)methyl)phenyl)-1,3,4-oxadiazole]",1213 fold,0.0412 µM,> 50 µM
"Fc1cc(-c2nnc(C(F)F)o2)ccc1Cn1cc(-c2cccc(CN3CCOCC3)c2)nn1 [Compound 4404, 4-(3-(1-(4-(5-(difluoromethyl)-1,3,4-oxadiazol-2-yl)-2-fluorobenzyl)-1H-1,2,3-triazol-4-yl)benzyl)morpholine]",837 fold,0.0597 µM,> 50 µM
"Fc1cc(-c2nnc(C(F)F)o2)ccc1Cn1cc(-c2cccc(CN3CCC(F)(F)CC3)c2)nn1 [Compound 4405, 2-(difluoromethyl)-5-(4-((4-(3-((4,4-difluoropiperidin-1-yl)methyl)phenyl)-1H-1,2,3-triazol-1-yl)methyl)-3-fluorophenyl)-1,3,4-oxadiazole]",794 fold,0.0629 µM,> 50 µM
"CN1CCN(Cc2cccc(-c3cn(Cc4ccc(-c5nnc(C(F)F)o5)cc4F)nn3)c2)CC1 [Compound 4406, 2-(difluoromethyl)-5-(3-fluoro-4-((4-(3-((4-methylpiperazin-1-yl)methyl)phenyl)-1H-1,2,3-triazol-1-yl)methyl)phenyl)-1,3,4-oxadiazole]",892 fold,0.056 µM,> 50 µM
"CCN1CCN(Cc2cccc(-c3cn(Cc4ccc(-c5nnc(C(F)F)o5)cc4F)nn3)c2)CC1 [Compound 4407, 2-(difluoromethyl)-5-(4-((4-(3-((4-ethylpiperazin-1-yl)methyl)phenyl)-1H-1,2,3-triazol-1-yl)methyl)-3-fluorophenyl)-1,3,4-oxadiazole]",1259 fold,0.0397 µM,> 50 µM
CC(C)N1CCN(Cc2cccc(-c3cn(Cc4ccc(-c5nnc(C(F)F)o5)cc4F)nn3)c2)CC1 [Compound 4408],970 fold,0.0515 µM,> 50 µM
"FC(F)c1nnc(-c2ccc(Cn3cc(-c4cccc(CN5CCC5)c4)nn3)cc2)o1 [Compound 4409, 2-(4-((4-(3-(azetidin-1-ylmethyl)phenyl)-1H-1,2,3-triazol-1-yl)methyl)phenyl)-5-(difluoromethyl)-1,3,4-oxadiazole]",96 fold,0.519 µM,> 50 µM
"FC1CN(Cc2cccc(-c3cn(Cc4ccc(-c5nnc(C(F)F)o5)cc4)nn3)c2)C1 [Compound 4410, 2-(difluoromethyl)-5-(4-((4-(3-((3-fluoroazetidin-1-yl)methyl)phenyl)-1H-1,2,3-triazol-1-yl)methyl)phenyl)-1,3,4-oxadiazole]",781 fold,0.064 µM,> 50 µM
